{
  "source": "patent US6776984B1",
  "about": "“Induced regeneration and repair of damaged neurons and nerve axon myelin” (priority 1999, dated 2004)",
  "test_system": "B6SJL-TgN(SOD1-G93A)1 Gur strain mice",
  "experiment": "Transgenic mouse model of familial amyotrophic lateral sclerosis (limb paralysis, survival)",
  "format": "in vivo",
  "text": "B6SJL-TgN(SOD1-G93A)1 Gur strain mice were obtained from. The Jackson Laboratory, Bar Harbor, Me. The transgene in these mice carries a high copy number of a mutant allele human SOD1 containing the Gly93 →Ala (G93A) substitution (often referred to as G1H). Mice progressively become paralyzed in one or more limbs, with paralysis due to loss of motor neurons from the spinal cord. The mice are generally described in Gurney M E, Pu H, Chiu A Y, Dal Canto M C, Polchow C Y, Alexander D D, Caliendo J, Hentati A, Kwon Y W, Deng H X, Chen W, Zhai P, Sufit R L, Siddique T: Motor neuron degeneration in mice that express a human Cu,Zn superoxide dismutase mutation. Science 264:1772-1775 (1994), and use of these mice as a model of familial amyotrophic lateral sclerosis is described in Chiu A Y, Zhai P, Dal Canto M C, Peters T M, Kwon Y W, Prattis S M, Gurney M E: Age-dependent penetrance of disease in a transgenic mouse model of familial amyotrophic lateral sclerosis. Mol Cell Neurosci 6:349-362 (1995).\nAt 105 days following birth, mouse A began manifesting objective symptoms of limb paralysis. A protocol as described in Table 1 was followed.\nThe thrombopoietin was obtained from Rand D. Systems, Inc. (Minneapolis, Minn.) as carrier-free recombinant thrombopoietin and the thryrotropin was obtained from Ferring Pharmaceuticals; both were administered by intraperitoneal (i.p.) injection. Synthroid®, a form of levothyroxine, was obtained from Flint Pharmaceuticals in 100 μg tablets.\nA litter mate of mouse A, referred to as mouse B, was administered a protocol as described in Table 2, with administration commencing prior to the onset of any objective symptoms.\nA B6SJL-TgN(SOD1-G93A)1Gur strain mouse as described in Example 1 was obtained, referred to as mouse C. Mouse C was administered a protocol as described in Table 3, with administration commencing prior to the onset of any objective symptoms.",
  "key": {"[1]": {"conditions": "mouse A, Table 1 protocol, thrombopoietin i.p. days 107, 110, 113"}},
  "data": [
    {"substance": "thrombopoietin", "values": [
      {"measurement": "objective symptoms observed at day 111", "setting": "mouse A, symptomatic from day 105, after thrombopoietin 0.5 cc of 1 μg/cc i.p. on days 107 and 110", "result": "marked improvement"},
      {"measurement": "objective symptoms observed on day 124", "setting": "mouse A, Table 1 protocol", "result": "increasing front limb weakness"},
      {"measurement": "day of death", "setting": "mouse A, Table 1 protocol (thrombopoietin, thyrotropin releasing hormone, Synthroid) started after symptom onset", "result": 126, "unit": "days"},
      {"measurement": "objective symptoms observed on day 122", "setting": "mouse A, Table 1 protocol, Synthroid in drinking water from day 121", "result": "marked improvement in front limbs"},
      {"measurement": "objective symptoms observed by day 118", "setting": "mouse A, Table 1 protocol, after thrombopoietin plus thyrotropin releasing hormone i.p. on day 117", "result": "decreased weakness"},
      {"measurement": "objective symptoms observed at day 113", "setting": "[1]", "result": "shaking resumed"},
      {"measurement": "objective symptoms observed by day 115", "setting": "[1]", "result": "marked hind limb weakness"},
      {"measurement": "objective symptoms observed on day 120", "setting": "mouse A, Table 1 protocol, thrombopoietin i.p. through day 119", "result": "increased mobility"},
      {"measurement": "day of death", "setting": "mouse B, Table 2 protocol", "result": 132, "unit": "days"},
      {"measurement": "delay of onset of objective signs versus litter mate mouse A", "setting": "mouse B, Table 2 protocol", "result": 16, "unit": "days"},
      {"measurement": "objective symptoms observed at day 129", "setting": "mouse B, Table 2 protocol", "result": "posterior limb paralysis"},
      {"measurement": "day of first objective signs (slight posterior weakness)", "setting": "mouse B, Table 2 protocol, thrombopoietin i.p. from day 87, Synthroid in drinking water from day 105, started before symptoms", "result": 121, "unit": "days"},
      {"measurement": "day through which no objective signs of illness were observed", "setting": "mouse C, Table 3 protocol, thrombopoietin i.p. days 80-88, Synthroid in drinking water from day 92, expected onset 91±14 days", "result": "> 110", "unit": "days"}
    ]}
  ]
}
